# Patent US9302988B2, “Fluoromethyl-substituted pyrrole carboxamides” (GRÜNENTHAL GMBH, priority 2012, dated 2016)
# Biological target: T1, Human CaV2.2 channels (Homo sapiens, UniProt Q00975)
# T1 construct: expressed in transfected cells
# Experiment: Fluorescent assay for CaV2.2 channels using potassium depolarization to induce channel opening (FLIPR, Fluo-4)
# Assay type: cell-based
# Details: 3 μM test compound, 30 mM KCl, HEK293 cells stably expressing human CaV2.2; read-out: %-Inhib (CaV2.2) @3 μM @30 mM KCl
# In short: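 HEK293 cells stably co-expressing CaV2.2 with α2δ and β subunits plus Kir2.3 were Fluo-4 loaded, then preincubated 15 min at 25 °C with compound in 30 mM KCl buffer, pH 7.4. Depolarization was by adding buffer containing 210 mM KCl. Inhibition was taken from baseline-normalized peak fluorescence amplitude (ex 480/em 535 nm).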
# T1 sequence (Q00975 whole entry): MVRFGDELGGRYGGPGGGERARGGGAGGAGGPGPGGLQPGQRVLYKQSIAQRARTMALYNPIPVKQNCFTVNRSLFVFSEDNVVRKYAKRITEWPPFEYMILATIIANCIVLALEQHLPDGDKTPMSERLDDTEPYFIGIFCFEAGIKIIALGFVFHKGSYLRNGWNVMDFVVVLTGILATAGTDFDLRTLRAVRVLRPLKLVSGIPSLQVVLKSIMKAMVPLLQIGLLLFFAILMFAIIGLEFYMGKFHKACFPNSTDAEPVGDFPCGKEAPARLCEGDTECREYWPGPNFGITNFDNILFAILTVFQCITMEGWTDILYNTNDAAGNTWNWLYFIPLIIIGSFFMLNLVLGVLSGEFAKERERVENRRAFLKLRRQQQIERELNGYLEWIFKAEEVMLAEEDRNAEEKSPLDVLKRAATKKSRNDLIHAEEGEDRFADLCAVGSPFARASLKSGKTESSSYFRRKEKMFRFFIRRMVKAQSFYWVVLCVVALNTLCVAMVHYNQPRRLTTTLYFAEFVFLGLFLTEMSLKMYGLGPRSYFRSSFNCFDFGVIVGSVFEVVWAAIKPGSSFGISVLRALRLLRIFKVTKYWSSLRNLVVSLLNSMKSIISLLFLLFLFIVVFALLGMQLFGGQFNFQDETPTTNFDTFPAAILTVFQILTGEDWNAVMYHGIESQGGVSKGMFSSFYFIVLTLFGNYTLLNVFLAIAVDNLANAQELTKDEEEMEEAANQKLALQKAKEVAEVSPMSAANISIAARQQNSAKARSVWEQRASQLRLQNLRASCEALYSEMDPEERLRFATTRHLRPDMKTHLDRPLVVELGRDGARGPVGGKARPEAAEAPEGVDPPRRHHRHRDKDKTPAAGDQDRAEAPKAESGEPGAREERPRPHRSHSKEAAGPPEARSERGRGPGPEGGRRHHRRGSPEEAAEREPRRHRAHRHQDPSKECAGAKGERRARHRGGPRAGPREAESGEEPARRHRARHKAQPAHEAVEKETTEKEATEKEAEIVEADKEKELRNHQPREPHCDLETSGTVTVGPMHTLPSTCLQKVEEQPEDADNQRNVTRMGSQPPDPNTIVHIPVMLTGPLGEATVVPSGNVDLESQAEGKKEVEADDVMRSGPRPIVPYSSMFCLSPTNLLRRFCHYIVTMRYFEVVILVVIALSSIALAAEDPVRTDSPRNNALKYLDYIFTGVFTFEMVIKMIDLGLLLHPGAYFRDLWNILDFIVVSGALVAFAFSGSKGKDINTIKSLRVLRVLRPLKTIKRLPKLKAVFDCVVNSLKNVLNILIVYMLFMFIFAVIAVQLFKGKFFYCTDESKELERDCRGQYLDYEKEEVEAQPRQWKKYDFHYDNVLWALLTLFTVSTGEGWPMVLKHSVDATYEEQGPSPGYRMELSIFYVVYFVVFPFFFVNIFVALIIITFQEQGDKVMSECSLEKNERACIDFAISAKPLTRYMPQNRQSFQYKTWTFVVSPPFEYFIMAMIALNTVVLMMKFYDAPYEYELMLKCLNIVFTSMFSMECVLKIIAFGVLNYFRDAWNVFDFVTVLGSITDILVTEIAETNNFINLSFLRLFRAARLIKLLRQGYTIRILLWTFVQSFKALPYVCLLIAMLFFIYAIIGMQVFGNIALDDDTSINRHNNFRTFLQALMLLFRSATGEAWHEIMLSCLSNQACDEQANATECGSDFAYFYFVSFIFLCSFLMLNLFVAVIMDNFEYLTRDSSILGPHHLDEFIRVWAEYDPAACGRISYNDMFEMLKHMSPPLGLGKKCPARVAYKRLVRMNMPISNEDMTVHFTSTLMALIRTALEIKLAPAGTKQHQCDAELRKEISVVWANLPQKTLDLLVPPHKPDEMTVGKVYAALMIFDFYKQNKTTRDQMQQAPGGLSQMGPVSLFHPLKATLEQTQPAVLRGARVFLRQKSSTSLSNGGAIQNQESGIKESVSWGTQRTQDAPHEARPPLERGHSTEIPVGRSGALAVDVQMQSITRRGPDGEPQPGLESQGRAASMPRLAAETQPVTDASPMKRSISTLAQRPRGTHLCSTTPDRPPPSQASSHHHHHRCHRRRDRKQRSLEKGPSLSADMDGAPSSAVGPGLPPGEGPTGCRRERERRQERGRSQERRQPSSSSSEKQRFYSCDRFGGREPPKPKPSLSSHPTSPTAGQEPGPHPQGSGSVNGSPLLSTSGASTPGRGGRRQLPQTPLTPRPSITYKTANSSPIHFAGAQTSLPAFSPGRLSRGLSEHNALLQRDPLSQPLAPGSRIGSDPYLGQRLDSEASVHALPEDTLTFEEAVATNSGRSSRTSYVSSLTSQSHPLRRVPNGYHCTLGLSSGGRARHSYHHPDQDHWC
# T1 sequence (P54289 25-1103, further chain): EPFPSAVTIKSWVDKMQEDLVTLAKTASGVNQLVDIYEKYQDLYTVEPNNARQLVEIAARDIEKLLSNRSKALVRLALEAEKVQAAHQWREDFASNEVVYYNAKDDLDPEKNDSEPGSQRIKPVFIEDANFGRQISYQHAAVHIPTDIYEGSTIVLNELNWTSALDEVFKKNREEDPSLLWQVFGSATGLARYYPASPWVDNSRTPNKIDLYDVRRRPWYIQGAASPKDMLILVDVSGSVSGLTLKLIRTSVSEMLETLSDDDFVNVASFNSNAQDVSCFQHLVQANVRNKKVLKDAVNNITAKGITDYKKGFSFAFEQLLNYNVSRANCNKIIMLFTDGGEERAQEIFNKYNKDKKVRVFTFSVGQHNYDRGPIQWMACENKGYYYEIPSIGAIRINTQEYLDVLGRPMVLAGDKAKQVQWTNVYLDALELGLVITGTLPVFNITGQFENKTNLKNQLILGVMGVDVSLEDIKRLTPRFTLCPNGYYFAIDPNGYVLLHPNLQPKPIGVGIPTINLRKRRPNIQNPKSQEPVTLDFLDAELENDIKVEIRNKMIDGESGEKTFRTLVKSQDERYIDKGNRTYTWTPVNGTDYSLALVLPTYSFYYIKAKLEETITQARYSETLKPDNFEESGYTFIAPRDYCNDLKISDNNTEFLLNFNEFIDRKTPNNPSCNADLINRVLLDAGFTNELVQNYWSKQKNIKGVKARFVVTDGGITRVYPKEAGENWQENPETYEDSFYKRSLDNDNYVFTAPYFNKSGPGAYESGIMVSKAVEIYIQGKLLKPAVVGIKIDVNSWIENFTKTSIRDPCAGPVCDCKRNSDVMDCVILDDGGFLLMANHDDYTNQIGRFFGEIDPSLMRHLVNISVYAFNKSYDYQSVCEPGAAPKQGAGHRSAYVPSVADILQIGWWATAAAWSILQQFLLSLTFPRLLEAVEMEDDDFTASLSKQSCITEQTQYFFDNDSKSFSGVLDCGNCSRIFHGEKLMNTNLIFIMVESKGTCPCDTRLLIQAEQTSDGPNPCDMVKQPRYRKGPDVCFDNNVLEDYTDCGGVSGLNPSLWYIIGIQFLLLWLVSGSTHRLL
# T1 sequence (P54284 whole entry, further chain): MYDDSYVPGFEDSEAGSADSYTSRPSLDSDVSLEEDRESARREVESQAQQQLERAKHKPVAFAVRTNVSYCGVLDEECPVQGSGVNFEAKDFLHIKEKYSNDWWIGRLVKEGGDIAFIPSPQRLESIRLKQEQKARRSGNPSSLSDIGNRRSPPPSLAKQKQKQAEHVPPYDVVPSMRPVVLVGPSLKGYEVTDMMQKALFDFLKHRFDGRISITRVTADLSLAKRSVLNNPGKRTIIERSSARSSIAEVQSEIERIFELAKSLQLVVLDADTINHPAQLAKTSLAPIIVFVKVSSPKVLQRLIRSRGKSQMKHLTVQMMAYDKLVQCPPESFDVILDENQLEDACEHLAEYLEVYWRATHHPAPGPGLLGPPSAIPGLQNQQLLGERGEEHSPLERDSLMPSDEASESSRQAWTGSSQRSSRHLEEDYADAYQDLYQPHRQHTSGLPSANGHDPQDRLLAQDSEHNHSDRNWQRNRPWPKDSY
row,SMILES,inhibition at 3 µM
1,"Cc1c(-c2ccc(Cl)cc2)c(C(=O)N(C)CC2(O)CC2)n(Cc2ccccc2)c1C(F)(F)F [SC-65, 1-Benzyl-3-(4-chlorophenyl)-N-[(1-hydroxy-cyclopropyl)-methyl]-N,4-dimethyl-5-(trifluoromethyl)-1H-pyrrole-2-carboxylic acid amide]",> 95%
2,"O=C1CN(C(=O)c2c(-c3ccc(Cl)cc3)cc(C(F)(F)F)n2Cc2ccccc2)CCN1 [SC-66, 4-[1-Benzyl-3-(4-chlorophenyl)-5-(trifluoromethyl)-1H-pyrrole-2-carbonyl]-piperazin-2-one]",75 to 95%
3,"CN(CCS(C)(=O)=O)C(=O)c1c(-c2ccc(Cl)cc2)cc(C(F)(F)F)n1Cc1ccccc1 [SC-67, 1-Benzyl-3-(4-chlorophenyl)-N-methyl-N-(2-methylsulfonyl-ethyl)-5-(trifluoromethyl)-1H-pyrrole-2-carboxylic acid amide]",> 95%
4,"CN(CC(C)(C)O)C(=O)c1c(-c2ccc(Cl)cc2)cc(C(F)(F)F)n1Cc1ccccc1 [SC-68, 1-Benzyl-3-(4-chlorophenyl)-N-(2-hydroxy-2-methyl-propyl)-N-methyl-5-(trifluoromethyl)-1H-pyrrole-2-carboxylic acid amide]",> 95%
5,"CN(CCS(C)(=O)=O)C(=O)c1c(-c2ccc(Cl)cc2)cc(C(F)(F)F)n1Cc1cccc(Cl)c1 [SC-69, 3-(4-Chlorophenyl)-1-[(3-chlorophenyl)-methyl]-N-methyl-N-(2-methylsulfonyl-ethyl)-5-(trifluoromethyl)-1H-pyrrole-2-carboxylic acid amide]",75 to 95%
6,"CN(CC(C)(C)O)C(=O)c1c(-c2ccc(Cl)cc2)cc(C(F)(F)F)n1Cc1cccc(Cl)c1 [SC-70, 3-(4-Chlorophenyl)-1-[(3-chlorophenyl)-methyl]-N-(2-hydroxy-2-methyl-propyl)-N-methyl-5-(trifluoromethyl)-1H-pyrrole-2-carboxylic acid amide]",> 95%
7,"CN(CC(C)(C)C)C(=O)c1c(-c2ccc(Cl)cc2)cc(C(F)(F)F)n1Cc1cccc(Cl)c1 [SC-71, 3-(4-Chlorophenyl)-1-[(3-chlorophenyl)-methyl]-N-(2,2-dimethyl-propyl)-N-methyl-5-(trifluoromethyl)-1H-pyrrole-2-carboxylic acid amide]",75 to 95%
8,"O=C(c1c(-c2ccc(Cl)cc2)cc(C(F)(F)F)n1Cc1ccccc1)N1CC(O)C1 [SC-72, [1-Benzyl-3-(4-chlorophenyl)-5-(trifluoromethyl)-1H-pyrrol-2-yl]-(3-hydroxy-azetidin-1-yl)-methanone]",75 to 95%
9,"CN(C(=O)c1c(-c2ccc(Cl)cc2)cc(C(F)(F)F)n1Cc1ccccc1)C1CCOCC1 [SC-73, 1-Benzyl-3-(4-chlorophenyl)-N-methyl-N-tetrahydro-pyran-4-yl-5-(trifluoromethyl)-1H-pyrrole-2-carboxylic acid amide]",> 95%
10,"O=C(c1c(-c2ccc(Cl)cc2)cc(C(F)(F)F)n1Cc1cccc(Cl)c1)N1CCOCC1 [SC-74, [3-(4-Chlorophenyl)-1-[(3-chlorophenyl)-methyl]-5-(trifluoromethyl)-1H-pyrrol-2-yl]-morpholin-4-yl-methanone]",> 95%
11,"CC1(C)CN(C(=O)c2c(-c3ccc(Cl)cc3)cc(C(F)(F)F)n2Cc2ccccc2)CCO1 [SC-75, [1-Benzyl-3-(4-chlorophenyl)-5-(trifluoromethyl)-1H-pyrrol-2-yl]-(2,2-dimethyl-morpholin-4-yl)-methanone]",75 to 95%
12,"CN(CC1CC1)C(=O)c1c(-c2ccc(Cl)cc2)cc(C(F)(F)F)n1Cc1ccccc1 [SC-76, 1-Benzyl-3-(4-chlorophenyl)-N-(cyclopropyl-methyl)-N-methyl-5-(trifluoromethyl)-1H-pyrrole-2-carboxylic acid amide]",75 to 95%
13,"CN(C(=O)c1c(-c2ccc(Cl)cc2)cc(C(F)(F)F)n1Cc1ccccc1)C(C)(C)C [SC-77, 1-Benzyl-N-tert-butyl-3-(4-chlorophenyl)-N-methyl-5-(trifluoromethyl)-1H-pyrrole-2-carboxylic acid amide]",75 to 95%
